{"source": "patent US7741506B2", "about": "“Probe for measuring phytase activity” (Berry & Associates, Inc., priority 2005, dated 2010)", "key": {"wheat 6-phytase": {"tested_on": "wheat 6-phytase", "assay": "6-phytase assay with HPLC analysis", "format": "biochemical", "conditions": "0.27 U enzyme, 1.2 mM substrate, sodium acetate buffer 0.2M, pH 5.2, 50° C.", "experimental": "(§1) Referring now to FIGS. 2 through 5, the aforesaid exemplary probe according to the instant invention (compound 2 of FIG. 1) was employed in assays of 3-phytase and 6-phytase activity. The 3-phytase assay consisted of a solution combining A. ficuum 3-phytase (0.27 U) and the penta-ammonium salt of compound 2 (1.2 mM in glycine-HCl buffer 0.2M, pH 2.6, 3 mL). The 3-phytase assay was carried out at 37° C. The 6-phytase assay consisted of a solution combining wheat 6-phytase (0.27 U) and compound 2 (1.2 mM in sodium acetate buffer, 0.2M, pH 5.2, 3 mL). The 6-phytase assay was carried out at 50° C.\n(§2) Control assays were similarly prepared but lacked the phytase enzyme. Assays were carried out in tinted vials, capped with septa and stirred continuously. Aliquot samples (30 μL) were taken and diluted with methanol-water (58:42, 970 μL) for HPLC analysis over the 24-hour time course of the assay.\n(§3) Mobile phase (pH 4.0) was prepared by mixing methanol (580 mL), water (420 mL), tetrabutylammonium hydroxide (8 mL), 5N aqueous sulfuric acid (0.5 mL), and 6.4 mM aqueous phytic acid (0.2 mL). HPLC analysis was performed on an analytical HPLC system using a reversed phase column (Hamilton PRP-1, 5 μm, 150×4.6 mm). Compounds were quantified by the external standards method."}, "A. ficuum 3-phytase": {"tested_on": "A. ficuum 3-phytase", "assay": "3-phytase assay with HPLC analysis", "format": "biochemical", "experimental": "as §1, §2, §3"}}}
{"smiles": "O=C(NCCCCCCOC1[C@@H](OP(=O)(O)O)[C@H](OP(=O)(O)O)C(OP(=O)(O)O)[C@H](OP(=O)(O)O)[C@H]1OP(=O)(O)O)c1ccccc1", "note": "(stereo partly drawn) [compound 2, 5-O-[6-(benzoylamino)hexyl]-D-myo-inositol-1,2,3,4,6-pentakisphosphate]", "values": [{"measurement": "substrate for 6-phytase (sequential dephosphorylation, HPLC)", "setting": "wheat 6-phytase", "value": "serves equally well as a substrate"}, {"measurement": "rate limiting step of the production of compound 7 from compound 2", "setting": "A. ficuum 3-phytase; 3-phytase, accumulation of the triphosphate, no significant diphosphate peak", "value": "conversion of triphosphate to diphosphate"}, {"measurement": "conversion of compound 2 to compound 7 (complete dephosphorylation) in the presence of 3-phytase", "setting": "A. ficuum 3-phytase; after 24 hours of incubation, 0.27 U enzyme, 1.2 mM substrate, glycine-HCl buffer 0.2M, pH 2.6, 37° C., HPLC", "value": "completely converted"}, {"measurement": "conversion in the enzyme free control", "setting": "A. ficuum 3-phytase; control lacking the phytase enzyme, 24 hours, glycine-HCl buffer pH 2.6, 37° C., HPLC", "value": "no conversion"}, {"measurement": "amide bond cleavage separating the UV chromophore from the phytic acid core (benzoic acid by HPLC)", "setting": "A. ficuum 3-phytase; in the assay and in the control", "value": "no benzoic acid could be detected"}]}
